Literature values in patent US7838561B2, “Method for preventing or treating cardiac hypertrophy” (Wisconsin Alumni Research Foundation, priority 2004, dated 2010).
“Also recorded” adds a separate entry of the source. Read-outs that look alike come from different tables or passages of the source.

Assays:
RARs [1] = system: RARs
RARα [2] = biological target: T1, RARα (Homo sapiens, UniProt P10276)
T1 sequence (P10276 1-462): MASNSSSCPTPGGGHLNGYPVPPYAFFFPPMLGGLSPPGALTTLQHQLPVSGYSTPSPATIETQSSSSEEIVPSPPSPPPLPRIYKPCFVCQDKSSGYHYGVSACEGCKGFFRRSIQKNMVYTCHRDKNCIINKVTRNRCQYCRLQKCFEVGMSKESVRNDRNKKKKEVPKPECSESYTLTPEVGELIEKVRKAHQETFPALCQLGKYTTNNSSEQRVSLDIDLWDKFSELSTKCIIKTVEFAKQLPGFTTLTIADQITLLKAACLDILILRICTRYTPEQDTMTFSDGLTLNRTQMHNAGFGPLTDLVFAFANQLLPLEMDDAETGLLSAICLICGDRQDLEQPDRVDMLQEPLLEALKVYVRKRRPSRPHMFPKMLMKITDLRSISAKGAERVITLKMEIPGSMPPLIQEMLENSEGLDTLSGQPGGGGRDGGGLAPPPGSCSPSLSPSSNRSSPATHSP

RARβ [3] = biological target: T2, RARβ (Homo sapiens, UniProt P10826)
T2 sequence (P10826 1-455): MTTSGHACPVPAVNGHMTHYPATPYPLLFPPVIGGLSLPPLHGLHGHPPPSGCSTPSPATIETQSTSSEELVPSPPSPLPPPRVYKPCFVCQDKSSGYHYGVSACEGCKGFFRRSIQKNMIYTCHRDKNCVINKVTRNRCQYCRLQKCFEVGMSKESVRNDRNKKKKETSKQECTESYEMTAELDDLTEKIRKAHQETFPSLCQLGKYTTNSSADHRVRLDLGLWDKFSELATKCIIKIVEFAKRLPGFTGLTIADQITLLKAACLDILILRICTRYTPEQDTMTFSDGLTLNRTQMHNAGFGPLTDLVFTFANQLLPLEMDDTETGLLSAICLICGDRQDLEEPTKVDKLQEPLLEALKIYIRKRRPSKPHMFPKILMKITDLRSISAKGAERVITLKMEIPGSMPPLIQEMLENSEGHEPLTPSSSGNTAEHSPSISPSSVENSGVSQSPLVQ

RARγ [4] = biological target: T3, RARγ (Homo sapiens, UniProt P13631)
T3 sequence (P13631 1-454): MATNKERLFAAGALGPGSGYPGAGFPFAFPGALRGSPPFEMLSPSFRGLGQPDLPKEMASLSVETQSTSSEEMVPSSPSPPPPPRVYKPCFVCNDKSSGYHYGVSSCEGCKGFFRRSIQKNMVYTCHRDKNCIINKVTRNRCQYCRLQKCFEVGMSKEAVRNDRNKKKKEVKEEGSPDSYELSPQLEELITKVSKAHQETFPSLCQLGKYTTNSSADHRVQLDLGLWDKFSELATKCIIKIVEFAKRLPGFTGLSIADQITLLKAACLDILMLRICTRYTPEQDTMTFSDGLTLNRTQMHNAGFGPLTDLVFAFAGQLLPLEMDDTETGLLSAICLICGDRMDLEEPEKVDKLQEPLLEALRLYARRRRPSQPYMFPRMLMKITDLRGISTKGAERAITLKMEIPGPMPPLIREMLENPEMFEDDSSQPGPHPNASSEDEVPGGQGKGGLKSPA

[5] = system: bone marrow granulocytic precursors; conditions: oral, 0.5 mg/kg/day for 10 days, mice
[6] = system: mouse limb bud chondrocytes
[7] = system: prostate carcinoma cell lines
[8] = topical, 0, 1.44, 7.2, 36.0 μmol/kg/day, mice
[9] = system: human cervical cancer cell line ECE16-1
RARα [10] = biological target: T1, RARα; remark: listed apart in the source
RARβ [11] = biological target: T2, RARβ; remark: listed apart in the source
RARγ [12] = biological target: T3, RARγ; remark: listed apart in the source
[13] = in vivo
RBP = RBP (Homo sapiens, UniProt P02753)
[14] = system: nuclear retinoid receptors
RARs [15] = conditions: in vitro
[16] = system: gastrulation-stage zebrafish embryo
[17] = ip, 15 mg/kg/d
[18] = system: rabbit HIG-82 synovial fibroblasts; conditions: 0.01 to 10 μM
mammary epithelial cell = conditions: 1 μM
[19] = 20 mg/kg/day, 7 days, subcutaneous, rats
testicular cells [20] = system: testicular cells
testicular cells [21] = conditions: rabbits, 2, 10, 50 mg/kg orally for 1 wk
[22] = system: acute promyelocytic leukemia; conditions: RA triggers differentiation

Compound: CC1=C(/C=C/C(C)=C/C=C/C(C)=C/C(=O)O)C(C)(C)CCC1 [All-trans-retinoic acid]
- Receptor Specificity (RARs [1]): RARαβγ

Compound: CCc1ccc(C2=CC(C)(C)Sc3ccc(C#Cc4ccc(C(=O)O)cc4)cc32)cc1 [AGN 194310]
- Kd (RARα [2]): 0.003 µM
- Kd (RARβ [3]): 0.002 µM
- Kd (RARγ [4]): 0.005 µM
- Receptor Specificity (RARs [1]): pan-RAR antagonist; also recorded: RARαβγ
- frequency of bone marrow granulocytic precursors [5]: sufficient to elevate the frequency of bone marrow granulocytic precursors
- signs of ill health or abnormal pathology [5]: did not show signs of ill health or abnormal pathology
- differentiation of limb bud chondrocytes, Sox9 induction ([6]; 50 nM): overcome RA signaling and permit the differentiation of mouse limb bud chondrocytes
- potency relative to all-trans-retinoic acid [7]: 12-22 times

Compound: Cc1ccc(C2=CCC(C)(C)c3ccc(C#Cc4ccc(C(=O)O)cc4)cc32)cc1 [AGN 193109]
- Kd (RARα [2]): 0.016 µM
- Kd (RARβ [3]): 0.007 µM
- Kd (RARγ [4]): 0.007 µM
- Receptor Specificity (RARs [1]): pan-RAR antagonist; also recorded: RARαβγ
- effect on TTNPB toxicity (cutaneous irritation, weight loss, mortality) [8]: counteracts the toxicity symptoms
- hormone action of RA in skin (later in development, single oral dose of 100 mg/kg): suppresses the hormone action of RA in skin
- placental transfer (pregnant mouse): readily crosses the placenta
- antagonism of retinoid-specific events in craniofacial development (pregnant mouse, 1 mg/kg single oral dose): sufficient to antagonize retinoid-specific events in craniofacial development
- partial agonist activity [9]: did not have partial agonist activity
- retinoid-mediated activities (proliferation, keratin & RARβ gene expression) ([9]; 10 nM, 100 nM): suppresses retinoid-mediated activities

Compound: CC1(C)CC=C(c2cnc3ccccc3c2)c2cc(C(=O)Nc3ccc(C(=O)O)cc3)ccc21 [BMS 614]
- Kd (RARα [2]): 0.0025 µM
- RARβ Kd (RARβ [3]): not bound
- RARγ Kd (RARγ [4]): not bound
- agonist or antagonist action at RARα (RARα [10]): antagonist
- molar excess to RA at which RARα transactivation is antagonised (RARα [10]): 100 fold
- antagonism of RARβ transactivation (RARβ [11]): at best modestly
- antagonism of RARγ transactivation (RARγ [12]): no antagonism
- Receptor Specificity (RARs [1]): RARα

Compound: CC1=C(/C=C/C(C)=C/C=C/C(C)=C/C(=O)Nc2ccc(O)cc2)C(C)(C)CCC1 [Fenretinide, N-[4-hydroxyphenyl]retinamide]
- binding to RARs and RXRs (RAR and RXR): weakly bind
- binding to RARs and RXRs (RAR and RXR; listed as 4-hydroxphenylretinamide): weakly
- concentrations of vitamin A and RBP in the bloodstream [13]: lower the concentrations of both vitamin A and retinol binding protein (RBP)
- symptoms of vitamin A insufficiency [13]: impaired dark vision adaptation and epithelial keratosis
- binding to RBP and effect on RBP-TTR (RBP): binds to RBP, displacing RBP from transthyretin (TTR)
- trans-activation of the nuclear retinoid receptors [14]: poorly trans-activates the nuclear retinoid receptors

Compound: CCCCCCCOc1cc2c(cc1/C(C)=C/c1ccc(C(=O)O)cc1)C(C)(C)CCS2(=O)=O [Ro 41-5253]
- Kd (RARα [2]): 0.06 µM
- Kd (RARβ [3]): 2.4 µM
- Kd (RARγ [4]): 3.3 µM
- Receptor Specificity (RARs [1]): RARα

Compound: O=C(O)c1ccc2cc(-c3ccc(O)c(C45CC6CC(CC(C6)C4)C5)c3)ccc2c1 [CD437]
- binding to RARs and RXRs (RAR and RXR): weakly bind

Compound: BMS 189453
- Kd (RARα [2]): ~0.015 µM
- Kd (RARγ [4]): ~0.02 µM
- agonist or antagonist action at RARα (RARα [10]): antagonist
- agonist or antagonist action at RARβ (RARβ [11]): weak RARβ agonist
- agonist or antagonist action at RARγ (RARγ [12]): antagonist
- Receptor Specificity (RARs [1]): RARαγ
- transactivation of the RARs (RARs [15]): does not transactivate the RARs
- AP-1 activity (AP-1): represses AP-1 activity
- effect on myocardiogenesis [16]: suppress myocardiogenesis
- overt toxicity or hypovitaminosis A [17]: not observed
- inflammation and joint erosion ([17]; mouse and rat, two models): delayed the onset, severity, and progression of inflammation and joint erosion
- gene expression of pro-inflammatory collagenase [18]: suppresses gene expression of pro-inflammatory collagenase
- mammary epithelial cell growth (mammary epithelial cell): inhibits mammary epithelial cell growth
- progression of experimental glomerulonephritis [19]: reduce the progression of experimental glomerulonephritis
- toxicity (eating or drinking, posturing or behavior, weight loss) [19]: did not show toxicity
- overt toxicity (testicular cells [20]; 2, 10, 50 mg/kg doses): not overtly toxic
- testicular atrophy after ceasing treatment (testicular cells [20]; 30 days after ceasing treatment, 2-50 mg/kg): testicular atrophy was seen at even low doses
- overt toxicity (testicular cells [20]; rats, 240 mg/kg daily for 30 days): Overt toxicity was observed
- testicular toxicity (testicular cells [20]; rats, 2, 10, 50 mg/kg for 1, 3, 7 days): caused the atrophy and degeneration of testicular cells
- testicular toxicity (testicular cells [21]): caused the atrophy and degeneration of testicular cells

Compound: CC1(C)CC=C(c2ccccc2)c2cc(C(=O)Nc3ccc(C(=O)O)cc3)ccc21 [BMS 185411]
- Kd (RARα [2]): ~0.15 µM
- Kd (RARβ [3]): ~1.3 µM
- Kd (RARγ [4]): ~20 µM
- agonist or antagonist action at RARα (RARα [10]): antagonist
- agonist or antagonist action at RARβ (RARβ [11]): agonist
- agonist or antagonist action at RARγ (RARγ [12]): weak agonist
- Receptor Specificity (RARs [1]): RARα
- activity in the acute promyelocytic leukemia assay [22]: no activity

Compound: CCCCCCCOc1cc2c(cc1/C(C)=C/C=C/C(C)=C/C(=O)O)C(C)(C)CCS2(=O)=O [Ro 46-5471]
- Kd (RARα [2]): 0.027 µM
- Kd (RARβ [3]): 5.1 µM
- Kd (RARγ [4]): 0.24 µM
- Receptor Specificity (RARs [1]): RARα

Compound: Cc1ccc(C2=CC(C)(C)Oc3c(Br)cc(C(=O)Nc4ccc(C(=O)O)c(F)c4)cc32)cc1 [AGN 194301]
- Kd (RARα [2]): 0.003 µM
- Kd (RARβ [3]): 0.32 µM
- Kd (RARγ [4]): 7.25 µM
- Receptor Specificity (RARs [1]): RARα
- differentiation of limb bud chondrocytes, Sox9 induction ([6]; 1 μM): overcome RA signaling and permit the differentiation of mouse limb bud chondrocytes
